Columns and labels:
Tetranychus urticae Koch [1] = assay: Mite adulticide pre-infection test (MI); type: in vivo; conditions: cowpea plants sprayed to run off with 300 ppm, adult mites transferred one day after treatment, examined five days later
Experimental: The remaining examples relate to the miticidal use of the compounds of this invention. In all these examples, a stock solution for the compounds was prepared at 3000 ppm by dissolving each compound to be tested in acetone with 0.67% Tween (v/v), a wetting agent. […] For each example that follows, this stock solution was used and the specificized dilutions made. All the tests discussed below, which involved treatment with compounds of this invention were always repeated with controls, in which the active compound was not provided, to permit a comparison upon which the percent control was calculated. One day before treatment of cowpea primary leaves with the test solutions, rings of tree tanglefoot were applied to each of two cowpea primary leaves, one from each of two plants in a pot. For the mite adulticide pre-infection tests, plants were sprayed to run off with a 300 ppm solution diluted from the 3000 ppm stock solution. One day following treatment of the plants with the test solution, groups of approximately 25 adult mites were transferred into the rings. Five days later these rings were examined for live mites remaining on the leaves. The percent control was estimated based on the number of mites surviving on the control plants.

Tetranychus urticae Koch [2] = assay: Mite ovicide test (MIOV); type: in vivo; conditions: mite eggs on cowpea leaves, sprayed to run off with 100 ppm, examined nine days after treatment, based on unhatched eggs
Experimental: The remaining examples relate to the miticidal use of the compounds of this invention. In all these examples, a stock solution for the compounds was prepared at 3000 ppm by dissolving each compound to be tested in acetone with 0.67% Tween (v/v), a wetting agent. […] For each example that follows, this stock solution was used and the specificized dilutions made. All the tests discussed below, which involved treatment with compounds of this invention were always repeated with controls, in which the active compound was not provided, to permit a comparison upon which the percent control was calculated. One day before treatment of cowpea primary leaves with the test solutions, rings of tree tanglefoot were applied to each of two cowpea primary leaves, one from each of two plants in a pot. For the mite ovicide tests, groups of adult mites (Tetranychus urticae Koch) were transferred into the rings one day before treatment and the females were allowed to deposit eggs until one hour before treatment, at which point all the adults were removed. The plants were then sprayed to run off with a 100 ppm solution diluted from the 3000 ppm stock solution. Nine days following treatment the ovicide rings were examined for unhatched eggs and living immature mites. The percent control was estimated based on the number of unhatched eggs.

COc1ccc(-c2ccccc2)cc1N1CN(C)CN1C(=O)OC(C)C [Compound 1, 1-methylethyl 2-(4-methoxy-[1,1′-biphenyl]-3-yl)-4-methyl-1,2,4-triazolidine-1-carboxylate]
Percent Control MI (Tetranychus urticae Koch [1]): 100%
Percent Control MIOV (Tetranychus urticae Koch [2]): 100%
